Results reported in ChEMBL document CHEMBL1201862, “PubChem BioAssay data set” (2004).
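In this assay, cells in 96-well plates receive the compound at five concentrations for 48 hours. Endpoints are linearly interpolated between the surrounding concentrations. GI50 is the concentration that inhibits growth by half.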 The source made the active and inactive calls. Cut-off read from the data, not from the text of the source: active = GI50 up to about 1.1 µM and inactive = higher.

Legend:
Test in all cases: NCI anticancer screen, dose series, 48 h
SK-MEL-2 = test system: SK-MEL-2
SR = test system: SR
DMS-114 = test system: DMS-114
HT-29 = test system: HT-29
MOLT-4 = test system: MOLT-4
HCC 2998 = test system: HCC 2998
SW-620 = test system: SW-620
RXF 393 = test system: RXF 393
IGROV-1 = test system: IGROV-1
UACC-62 = test system: UACC-62
786-0 = test system: 786-0
NCI-H460 = test system: NCI-H460
NCI-H23 = test system: NCI-H23
KM-20L2 = test system: KM-20L2
NCI-H226 = test system: NCI-H226
K562 = test system: K562
LOX IMVI = test system: LOX IMVI

Measured: GI50

NCCCNCCCCN(CCCN)/[N+]([O-])=N\O
inactive: SK-MEL-2 > 100 µM | SR 28.6 µM | DMS-114 > 100 µM | HT-29 > 100 µM | MOLT-4 > 100 µM | HCC 2998 > 100 µM | SW-620 > 100 µM | RXF 393 > 100 µM | IGROV-1 > 100 µM | UACC-62 > 100 µM | 786-0 > 100 µM | NCI-H460 > 100 µM | NCI-H23 > 100 µM | KM-20L2 > 100 µM | NCI-H226 > 100 µM | K562 > 100 µM

CC(=O)NNc1nc(C)c(C(=O)NNC(=O)C(=O)Nc2c(Cl)cc([N+](=O)[O-])cc2Cl)s1
inactive: SK-MEL-2 43.5 µM | SR 30.5 µM | DMS-114 32.6 µM | HT-29 37.8 µM | MOLT-4 30.4 µM | HCC 2998 37.8 µM | SW-620 24.5 µM | IGROV-1 49.3 µM | UACC-62 29.9 µM | 786-0 33 µM | NCI-H460 43.2 µM | NCI-H23 18.9 µM | KM-20L2 31.9 µM | LOX IMVI 25.6 µM | NCI-H226 24 µM | K562 36 µM

CC(=O)O[C@@H]1C2C(=O)OC(=O)C2C2CCC[C@]23O[C@H]13 (some centres not stated)
inactive: SK-MEL-2 > 100 µM | SR > 100 µM | DMS-114 > 100 µM | MOLT-4 > 100 µM | HCC 2998 > 100 µM | SW-620 > 100 µM | RXF 393 > 100 µM | IGROV-1 > 100 µM | UACC-62 > 100 µM | 786-0 > 100 µM | NCI-H460 > 100 µM | KM-20L2 > 100 µM | NCI-H226 > 100 µM | K562 > 100 µM

O=C(CC1S/C(=N\c2ccccc2Cl)NC1=O)Nc1ccc(Cl)cc1 (configuration not stated)
inactive: SK-MEL-2 > 100 µM | SR 31.3 µM | DMS-114 > 100 µM | HT-29 64 µM | HCC 2998 > 100 µM | SW-620 10.6 µM | RXF 393 > 100 µM | IGROV-1 > 100 µM | UACC-62 > 100 µM | 786-0 > 100 µM | NCI-H460 > 100 µM | NCI-H23 > 100 µM | KM-20L2 > 100 µM | LOX IMVI 99.3 µM | K562 79.1 µM

COC(=O)C1CC(=O)CCC1c1ccccc1 (configuration not stated)
inactive: SK-MEL-2 > 100 µM | SR > 100 µM | DMS-114 > 100 µM | HT-29 > 100 µM | MOLT-4 > 100 µM | HCC 2998 > 100 µM | SW-620 > 100 µM | IGROV-1 > 100 µM | UACC-62 > 100 µM | 786-0 > 100 µM | NCI-H460 > 100 µM | NCI-H23 > 100 µM | KM-20L2 > 100 µM | LOX IMVI > 100 µM | NCI-H226 > 100 µM | K562 > 100 µM

CN(C)CCS/C(=N\c1ccccc1)n1cccc1
inactive: SK-MEL-2 44.7 µM | SR 33.2 µM | DMS-114 26.3 µM | HT-29 41.5 µM | MOLT-4 49.9 µM | SW-620 > 100 µM | RXF 393 27.1 µM | IGROV-1 > 100 µM | UACC-62 82.8 µM | 786-0 > 100 µM | NCI-H460 > 100 µM | NCI-H23 72.8 µM | KM-20L2 32.1 µM | LOX IMVI 43.5 µM | NCI-H226 22.3 µM | K562 53.6 µM

C=C1C(OC(=O)/C=C/c2ccccc2)CC(OC(C)=O)C2(C)C1CC1CC(OC(C)=O)C(C)=C(C(OC(C)=O)C2OC(C)=O)C1(C)C (configuration not stated)
inactive: SR 3.97 µM | DMS-114 5.97 µM | HT-29 > 100 µM | MOLT-4 4.61 µM | HCC 2998 7.71 µM | SW-620 > 100 µM | IGROV-1 > 100 µM | UACC-62 > 100 µM | 786-0 > 100 µM | NCI-H460 6.67 µM | KM-20L2 > 100 µM | LOX IMVI > 100 µM | NCI-H226 > 100 µM | K562 5.25 µM
